{"source": "patent US9625448B2", "about": "“Double caged GABA compounds, bis-CNB-GABA” (The Trustees of Princeton University, priority 2014, dated 2017)", "key": {"[1]": {"settings": "cited from earlier work"}, "[2]": {"settings": "cited from earlier work", "remark": "listed apart in the source"}, "[3]": {"settings": "aqueous solution; literature; cited from earlier work"}, "GABAA receptors [4]": {"biological_target": "GABAA receptors", "settings": "Table 2; Matsuzaki et al. 2010; read-out: IC50 in blocking synaptic GABAA currents; cited from earlier work"}, "GABAA receptors [5]": {"tested_on": "GABAA receptors", "assay": "Current evoked by puff of 100 μM GABA and caged compounds around the soma (Matsuzaki et al., 2010)", "assay_type": "cell-based", "settings": "for IC33: calculated, q=0.33", "protocol": "(§1) FIG. 26 illustrates whole-cell patch clamp recordings from dentate granule cells of rat hippocampal slices reported by Molnár & Nadler, 2000. […] Holding potential of −80 mV. (Molnár & Nadler, 2000 European Journal of Pharmacology, 391, 255-262, which is incorporated herein by reference as if fully set forth, which is incorporated herein by reference as if fully set forth). […] FIG. 27 illustrates summary of the amplitudes of the current evoked by puff of 100 μM GABA and caged compounds around the soma reported by Matsuzaki et al., 2010. The amplitude was normalized to the mean current that was induced by GABA application alone. Left panel illustrates control (n=7); +10 mM CNI-GABA (n=7). Central panel illustrates control (n=10); +0.4 mM CDNI-GABA (n=10), +1.35 mM CDNI-GABA (n=14); +10 mM CDNI-GABA (n=10). Right panel illustrates control (n=9); +1 mM MNI-Glu (n=4); +10 mM MNI-Glu (n=9). ** p<0.0001, * p<0.01 (Matsuzaki et al., 2010 Nature Chemical Biology, 6, 255-257, which is incorporated herein by reference as if fully set forth). […] Though this is a much higher concentration compared to the IC50 for CNB-GABA, CDNI requires a higher concentration when photolyzed in vitro because of its two-photon sensitivity. Because 10 mM is the concentration used for two-photon uncaging, this antagonism is still practically limiting. […] FIG. 28 illustrates the effects of NI-caged GABA and DPNI-GABA on amplitudes of miniature GABA synaptic currents as reported by Trigo et al., 2009. Referring to FIG. 28 (left), this panel illustrates recordings of miniature synaptic GABA currents in molecular layer interneurons before and during application of 1 mM DPNI-GABA. The initial inward current on diluting the cage into the bath was attributable to contaminating levels of GABA. Referring to FIG. 28 (right), the panel illustrates summary histogram from five cells of the block of spontaneous GABA currents by DPNI-GABA at different concentrations in the bath. (Trigo et al., 2009 Journal of Neuroscience Methods, 181, 159-169, which is incorporated herein by reference as if fully set forth)."}, "GABAA receptors [6]": {"tested_on": "GABAA receptors", "assay": "Miniature GABA synaptic currents in molecular layer interneurons (Trigo et al., 2009)", "assay_type": "cell-based", "protocol": "as §1"}, "cerebellar interneurons": {"tested_on": "cerebellar interneurons", "settings": "FIG. 43A, 1 mM; see Trigo et al., 2009; cited from earlier work"}, "GABAA receptors [7]": {"tested_on": "GABAA receptors", "settings": "cited from earlier work"}, "GABAA receptors [8]": {"tested_on": "GABAA receptors", "settings": "cited from earlier work", "remark": "listed apart in the source"}, "[9]": {"settings": "N-position; Wieboldt et al., 1994; cited from earlier work"}, "[10]": {"tested_on": "cerebellar molecular layer interneurons", "assay": "Photolysis-evoked GABAergic currents in cerebellar molecular layer interneurons", "assay_type": "cell-based", "protocol": "The biological properties of our synthetic bis-CNB-GABA were evaluated using whole-cell patch recording from cerebellar molecular layer interneurons.\nFIGS. 42A-42E illustrate physiological responses to photolysis of bis-CNB-GABA. FIG. 42A illustrates a cerebellar molecular layer interneuron visualized using Alexa 488 in the patch recording electrode solution. Referring to FIG. 42A, bis-CNB-GABA (0.6 mM) was photolyzed with a 405 nm laser spot in 3 different locations (indicated by 1, 2 and 3). Still referring to FIG. 42A, laser-evoked GABAergic currents are shown on the right panel. Still referring to FIG. 42A, gray traces show individual sweeps and black traces are averages. Still referring to FIG. 42A, the gray sweep at bottom indicates the laser flash (1 ms duration, intensity 5 mW) as recorded using a photodiode. FIG. 42B illustrates bis-CNB-GABA (1.4 mM) was photolyzed with a […] LED at progressively higher flash energies (0.25-1.1 mW, 5-50 ms, 1.25-55 μJ). FIG. 42C illustrates the same experiment as shown in FIG. 42B with Responses to mono-CNB-GABA (50 μM). FIG. 42D illustrates normalized current as a function of relative LED flash energies plotted on a log-log scale. FIG. 42E illustrates laser-evoked whole-cell current recorded in the absence and presence of 3 μM gabazine, a GABA receptor antagonist. Referring to FIG. 42E, a larger flash energy was used in the presence of gabazine.\nReferring to FIG. 42A, molecular layer interneurons receive excitatory glutamatergic synapses, as well as inhibitory GABAergic synapses that show a pronounced level of spontaneous activity (gray traces). The effects of bis-CNB-GABA on these synaptic currents were tested.\nBy contrast, the relationship for mono-O-CNB-GABA was close to linear (log-log slope=1.3±0.1, n=3). For these measurements, evoked currents were normalized to the maximum current observed in the same neuron. […] These power laws are consistent with a process in which each molecule of bis-CNB-GABA must cumulatively undergo two uncaging reactions in order to release an active GABAA agonist.\nTo test whether bis-CNB-GABA-evoked responses resemble physiological events in their kinetics, we measured the kinetic properties of flash responses. […] This rise time is consistent with the dark reaction time (1.5 ms) for the slower cage, N-mono-CNB-GABA (Wieboldt, R.; Ramesh, D.; Carpenter, B. K; Hess, G. P. Biochemistry, 1994, 33, 1526-1533, which is incorporated herein by reference as if fully set forth). […] These rates approach those of spontaneous events and are among the fastest described for other GABA cages. […]"}}, "note": "Like-named read-outs stand apart in the source and are kept apart here.", "data": [{"smiles": "O=C(O)CC[C@H](NC(=O)OCc1cc(=O)oc2cc(O)c(Br)cc12)C(=O)O", "note": "[Bhc-glutamate]", "values": [{"measurement": "product of extinction coefficient and quantum yield (φ×ε)", "setting": "[1]; caged on the amine", "result": 331, "unit": "M⁻¹ cm⁻¹"}, {"measurement": "quantum yield", "setting": "[1]; caged on the amine", "result": 0.019}, {"measurement": "product of extinction coefficient and quantum yield (ε×Φ)", "setting": "[1]; literature values", "result": 371, "unit": "M⁻¹ cm⁻¹"}, {"measurement": "quantum yield", "setting": "[1]; literature values", "result": 0.019}, {"measurement": "extinction coefficient", "setting": "[2]; at 368 nm, caged on the amine", "result": "17,470 M^−1 cm^−1"}, {"measurement": "extinction coefficient", "setting": "[2]; at 369 nm, caged at the carboxylate", "result": "19,550 M^−1 cm^−1"}]}, {"smiles": "NCCCC(=O)N1CCc2c(OCC(=O)O)c([N+](=O)[O-])cc([N+](=O)[O-])c21", "note": "[CDNI-GABA]", "values": [{"measurement": "product of extinction coefficient and quantum yield (ε×Φ)", "setting": "[1]; literature values", "result": "3,840 M^−1 cm^−1"}, {"measurement": "quantum yield", "setting": "[1]; literature values", "result": 0.6}, {"measurement": "Stability", "setting": "[3]", "result": "Stable"}, {"measurement": "extinction coefficient", "setting": "[2]; at 330 nm", "result": "6,400 M^−1 cm^−1"}, {"measurement": "IC50", "setting": "GABAA receptors [4]", "result": 600, "unit": "µM"}, {"measurement": "concentration showing 33% reduced response", "setting": "GABAA receptors [5]", "result": 220, "unit": "µM"}, {"measurement": "IC33", "setting": "GABAA receptors [5]; Table 1", "result": 0.22}, {"measurement": "IC50", "setting": "GABAA receptors [5]; from data of Matsuzaki et al., 2010", "result": 450, "unit": "µM"}]}, {"smiles": "NCCCC(=O)N1CCc2c(OC(COP(=O)(O)O)COP(=O)(O)O)ccc([N+](=O)[O-])c21", "note": "[DPNI-GABA]", "values": [{"measurement": "Stability", "setting": "[3]", "result": "Stable"}, {"measurement": "concentration showing 33% reduction", "setting": "GABAA receptors [6]", "result": 230, "unit": "µM"}, {"measurement": "IC33", "setting": "GABAA receptors [6]; Table 1, calculated, q=0.33", "result": 0.23, "unit": "mM"}, {"measurement": "IC50", "setting": "GABAA receptors [6]; from data of Trigo et al., 2009", "result": 470, "unit": "µM"}, {"measurement": "effect on inward holding current compared with mono-O-CNB-GABA", "setting": "cerebellar interneurons", "result": "similar, though less pronounced"}, {"measurement": "decrease in response", "setting": "GABAA receptors [7]; 1 mM", "result": "> 50", "unit": "%"}, {"measurement": "IC50", "setting": "GABAA receptors [7]; Table 2, cerebellar interneurons, read-out: IC50 in blocking synaptic GABAA currents", "result": 500, "unit": "µM"}, {"measurement": "effect on rise times of IPSCs", "setting": "GABAA receptors [7]; Trigo et al., 2009", "result": "prolongs rise times"}]}, {"smiles": "COc1ccc([N+](=O)[O-])c2c1CCN2C(=O)CCCN", "note": "[MNI-GABA]", "values": [{"measurement": "effect on GABAA receptors", "setting": "GABAA receptors [8]; less than CNB-GABA, Palma-Cerda et al., 2012", "result": "antagonistic effect"}]}, {"smiles": "COc1ccc([N+](=O)[O-])c2c1CCN2C(=O)CC[C@H](N)C(=O)O", "note": "[MNI-glu]", "values": [{"measurement": "quantum yield", "setting": "[1]; literature values", "result": 0.085}, {"measurement": "IC50", "setting": "GABAA receptors [5]; Table 1, calculated from data of Matsuzaki et al. 2010", "result": 1100, "unit": "µM"}, {"measurement": "IC33", "setting": "GABAA receptors [5]; Table 1", "result": 0.37}]}, {"smiles": "O=C(O)CCCNC(C(=O)O)c1ccccc1[N+](=O)[O-]", "note": "(stereo not shown) [N-mono-CNB-GABA]", "values": [{"measurement": "dark reaction time", "setting": "[9]", "result": 1.5, "unit": "ms"}]}, {"smiles": "F[P-](F)(F)(F)(F)F.NCCCC(=O)[O-].[Ru+2].c1ccc(-c2ccccn2)nc1.c1ccc(-c2ccccn2)nc1.c1ccc(P(c2ccccc2)c2ccccc2)cc1", "note": "[RuBi-GABA, Ruthenium-bipyridine-triphenylphosphine-GABA]", "values": [{"measurement": "concentrations at which antagonistic GABAA receptor activity is exhibited", "setting": "GABAA receptors [8]; Verde et al., 2008", "result": "above 20 μM"}]}, {"smiles": "CP(C)C.F[P-](F)(F)(F)(F)F.F[P-](F)(F)(F)(F)F.NC(CCC(=O)[O-])C(=O)[O-].[Na+].[Na+].[Ru+2].c1ccc(-c2ccccn2)nc1.c1ccc(-c2ccccn2)nc1", "note": "[RuBi-glutamate]", "values": [{"measurement": "IC50", "setting": "GABAA receptors [8]; Table 2 footnote 2, Fino et al., 2009, read-out: IC50 in blocking synaptic GABAA currents", "result": 300, "unit": "µM"}]}, {"smiles": "COc1ccc(-c2ccc(=N)n(CCCC(=O)O)n2)cc1", "note": "[gabazine]", "values": [{"measurement": "effect on currents produced by photolysis of bis-CNB-GABA", "setting": "[10]; 3 μM gabazine", "result": "reversibly eliminated"}, {"measurement": "effect on responses to photolysis of bis-CNB-GABA", "setting": "[10]; 3 M gabazine", "result": "eliminated these responses"}]}]}
